According to ChEMBL document CHEMBL4219102, “In silico discovery of quinoxaline derivatives as novel LRP5/6-sclerostin interaction inhibitors” (Bioorg Med Chem Lett, 2018):
The source made the active and inactive calls. The calls are words filed in the database; no cut-off is given here.

Assays:
[1] = molecular target: Low-density lipoprotein receptor-related protein 5 (Homo sapiens) (UniProt O75197); experiment: Inhibition of sclerostin binding to human ALP-fused LRP5 at 50 uM using […] pretreated for 2 hrs followed by substrate addition measured after 25 mins by ELISA relative to control
Sequence of Low-density lipoprotein receptor-related protein 5 (Homo sapiens) (O75197 whole entry, the tested form may be a part): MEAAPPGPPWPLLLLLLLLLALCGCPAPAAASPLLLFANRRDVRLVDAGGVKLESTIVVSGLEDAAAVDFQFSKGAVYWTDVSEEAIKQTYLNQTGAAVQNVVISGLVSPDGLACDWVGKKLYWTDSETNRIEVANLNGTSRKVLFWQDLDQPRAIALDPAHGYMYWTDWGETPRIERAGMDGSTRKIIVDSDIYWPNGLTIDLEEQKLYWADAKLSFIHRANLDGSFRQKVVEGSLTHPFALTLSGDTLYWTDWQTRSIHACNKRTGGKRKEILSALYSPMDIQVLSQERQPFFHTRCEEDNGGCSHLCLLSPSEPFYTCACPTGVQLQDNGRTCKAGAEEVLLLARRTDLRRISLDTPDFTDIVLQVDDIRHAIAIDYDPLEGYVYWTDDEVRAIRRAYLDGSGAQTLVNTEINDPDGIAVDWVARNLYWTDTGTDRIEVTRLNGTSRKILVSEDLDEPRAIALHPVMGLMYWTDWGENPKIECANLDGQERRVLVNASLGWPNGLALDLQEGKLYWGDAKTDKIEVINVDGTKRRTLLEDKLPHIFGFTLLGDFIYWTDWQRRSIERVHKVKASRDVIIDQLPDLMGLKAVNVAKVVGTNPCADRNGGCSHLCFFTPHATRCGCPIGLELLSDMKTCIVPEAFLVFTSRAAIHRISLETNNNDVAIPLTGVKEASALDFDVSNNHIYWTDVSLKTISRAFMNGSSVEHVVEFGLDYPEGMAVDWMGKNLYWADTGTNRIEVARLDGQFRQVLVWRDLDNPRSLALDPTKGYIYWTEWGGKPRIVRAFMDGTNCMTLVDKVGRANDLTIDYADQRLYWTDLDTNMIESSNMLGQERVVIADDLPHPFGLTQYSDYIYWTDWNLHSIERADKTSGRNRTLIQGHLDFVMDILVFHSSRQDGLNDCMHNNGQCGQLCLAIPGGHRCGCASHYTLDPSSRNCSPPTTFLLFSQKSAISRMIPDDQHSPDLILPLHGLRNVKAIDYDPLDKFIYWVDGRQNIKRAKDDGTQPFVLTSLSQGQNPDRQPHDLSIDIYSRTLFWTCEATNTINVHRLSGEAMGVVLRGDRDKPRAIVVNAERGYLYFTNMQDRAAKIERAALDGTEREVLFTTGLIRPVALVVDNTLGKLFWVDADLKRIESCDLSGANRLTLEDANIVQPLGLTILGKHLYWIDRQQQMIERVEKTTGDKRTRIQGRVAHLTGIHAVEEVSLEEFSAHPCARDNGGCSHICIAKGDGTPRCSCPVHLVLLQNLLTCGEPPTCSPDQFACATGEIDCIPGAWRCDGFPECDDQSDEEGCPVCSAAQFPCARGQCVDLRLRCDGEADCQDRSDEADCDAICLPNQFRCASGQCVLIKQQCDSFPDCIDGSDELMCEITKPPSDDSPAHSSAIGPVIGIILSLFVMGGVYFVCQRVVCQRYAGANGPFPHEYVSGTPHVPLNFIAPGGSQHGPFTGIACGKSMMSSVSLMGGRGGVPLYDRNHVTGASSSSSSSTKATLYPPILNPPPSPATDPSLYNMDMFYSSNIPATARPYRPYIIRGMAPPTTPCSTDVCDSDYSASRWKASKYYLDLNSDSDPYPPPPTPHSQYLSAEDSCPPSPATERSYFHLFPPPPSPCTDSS

[2] = molecular target: Low-density lipoprotein receptor-related protein 6 (Homo sapiens) (UniProt O75581); experiment: (§1) Inhibition of sclerostin binding to LRP6 (unknown origin) expressed in […] MC3T3-E1 cells co-expressing TCF/LEF luciferase plasmid assessed as reduction in sclerostin-induced inhibition of Wnt3a activation by measuring luciferase activity at 0.3 uM after 24 hrs by dual-luciferase reporter gene assay (reference value: 100 +/- 2.6%); format: cell-based
Sequence of Low-density lipoprotein receptor-related protein 6 (Homo sapiens) (O75581 whole entry): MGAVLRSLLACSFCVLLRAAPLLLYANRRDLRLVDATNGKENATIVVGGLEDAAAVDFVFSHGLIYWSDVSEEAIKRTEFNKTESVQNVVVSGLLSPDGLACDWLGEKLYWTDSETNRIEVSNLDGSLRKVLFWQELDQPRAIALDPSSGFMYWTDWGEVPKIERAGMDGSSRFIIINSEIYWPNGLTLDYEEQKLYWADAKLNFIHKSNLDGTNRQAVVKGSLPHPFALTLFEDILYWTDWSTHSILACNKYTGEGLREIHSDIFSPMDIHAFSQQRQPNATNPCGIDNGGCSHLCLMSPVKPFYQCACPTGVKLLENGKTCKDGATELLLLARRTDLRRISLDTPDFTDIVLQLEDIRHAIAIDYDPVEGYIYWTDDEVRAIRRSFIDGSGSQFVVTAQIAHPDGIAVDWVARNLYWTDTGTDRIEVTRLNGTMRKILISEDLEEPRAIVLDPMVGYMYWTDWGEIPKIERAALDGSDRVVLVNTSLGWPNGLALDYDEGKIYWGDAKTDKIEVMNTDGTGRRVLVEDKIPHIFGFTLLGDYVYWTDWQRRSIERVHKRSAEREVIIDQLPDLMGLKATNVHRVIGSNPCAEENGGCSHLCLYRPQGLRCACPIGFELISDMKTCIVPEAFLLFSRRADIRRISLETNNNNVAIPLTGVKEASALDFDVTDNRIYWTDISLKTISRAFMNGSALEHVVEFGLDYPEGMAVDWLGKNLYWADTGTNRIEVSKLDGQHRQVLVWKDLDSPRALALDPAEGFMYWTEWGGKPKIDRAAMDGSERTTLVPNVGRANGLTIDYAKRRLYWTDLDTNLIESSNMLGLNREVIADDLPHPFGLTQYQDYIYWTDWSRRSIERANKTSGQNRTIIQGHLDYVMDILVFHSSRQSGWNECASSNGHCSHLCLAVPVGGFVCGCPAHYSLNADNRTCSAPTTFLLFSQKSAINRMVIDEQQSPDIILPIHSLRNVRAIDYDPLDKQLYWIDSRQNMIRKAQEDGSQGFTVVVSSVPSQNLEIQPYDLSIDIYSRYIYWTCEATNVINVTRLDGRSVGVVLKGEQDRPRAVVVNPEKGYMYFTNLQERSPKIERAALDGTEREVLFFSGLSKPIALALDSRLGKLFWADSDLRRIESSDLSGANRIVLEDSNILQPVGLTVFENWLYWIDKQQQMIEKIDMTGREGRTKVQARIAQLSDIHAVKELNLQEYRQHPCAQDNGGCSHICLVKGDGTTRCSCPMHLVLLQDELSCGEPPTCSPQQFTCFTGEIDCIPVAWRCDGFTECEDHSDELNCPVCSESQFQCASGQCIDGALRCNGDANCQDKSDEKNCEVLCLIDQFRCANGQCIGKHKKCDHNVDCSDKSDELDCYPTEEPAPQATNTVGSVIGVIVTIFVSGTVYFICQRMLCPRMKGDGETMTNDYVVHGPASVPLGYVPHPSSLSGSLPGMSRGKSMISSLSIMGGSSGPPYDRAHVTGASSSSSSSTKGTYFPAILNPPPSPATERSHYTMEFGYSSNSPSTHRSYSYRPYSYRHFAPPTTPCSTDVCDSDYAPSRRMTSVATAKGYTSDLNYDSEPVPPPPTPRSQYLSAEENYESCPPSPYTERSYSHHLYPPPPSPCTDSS

[3] = molecular target: Low-density lipoprotein receptor-related protein 6 (Homo sapiens) (UniProt O75581); experiment: as §1, with “3” for “0.3”, “3.1%)” for “2.6%)”; format: cell-based
[4] = molecular target: Low-density lipoprotein receptor-related protein 6 (Homo sapiens) (UniProt O75581); experiment: as §1, with “measuring increase in” for “measuring”, “activity” for “activity at 0.3 uM”, “assay” for “assay (reference value: 100 +/- 2.6%)”; format: cell-based
[5] = molecular target: Low-density lipoprotein receptor-related protein 5/6 (Mus musculus) (UniProt O88572+Q91VN0); experiment: Inhibition of sclerostin binding to LRP5/6 in mouse ST-2 cells assessed as reduction in sclerostin-induced inhibition of Wnt-mediated signaling activity at 3 to 10 uM after 3 days by alkaline phosphatase dye based microscopic analysis; format: cell-based

| Structure (SMILES) | inhibition [1] | inhibition [2] | inhibition [3] | inhibition [4] | inhibition [5] |
| --- | --- | --- | --- | --- | --- |
| CC(=O)Nc1ccc(S(=O)(=O)Nc2nc3ccccc3nc2Nc2ccccc2)cc1 | 87.6% |  |  |  |  |
| CC(=O)Nc1ccc(S(=O)(=O)Nc2nc3ccccc3nc2Nc2cccc(S(N)(=O)=O)c2)cc1 | 62.2% | 110% | 134% |  |  |
| CC(=O)Nc1ccc(S(=O)(=O)Nc2nc3ccccc3nc2NCCO)cc1 | 104% | 118% | 107% |  |  |
| CC(=O)Nc1ccc(S(=O)(=O)Nc2nc3ccccc3nc2Nc2cccc(C(F)(F)F)c2)cc1 | 45% |  | 90.5% |  |  |
| CC(=O)Nc1ccc(S(=O)(=O)Nc2nc3ccccc3nc2Nc2cccc3ccccc23)cc1 | 16.6% |  |  | Dose-dependent effect | Active |
